The structures appear in SMILES notation.

A word on the residual activity: it is the activity still measured, relative to the control. As usually defined, the IC50 is the concentration that inhibits the measured activity by half. A high value points to weaker potency in that assay.

In assay [1] the target is Tyrosine-protein kinase JAK1 (Homo sapiens) (UniProt P23458). The settings on record: Compound concentration 1000.0 nM.
In assay [2] the test system is Mast/stem cell growth factor receptor Kit (Homo sapiens), P10721 [D816V]. The settings on record: Compound concentration 1000.0 nM.
Assay [3] concerns the target T1, Serine/threonine-protein kinase 4 (Homo sapiens) (UniProt Q13043).
T1 sequence (whole entry): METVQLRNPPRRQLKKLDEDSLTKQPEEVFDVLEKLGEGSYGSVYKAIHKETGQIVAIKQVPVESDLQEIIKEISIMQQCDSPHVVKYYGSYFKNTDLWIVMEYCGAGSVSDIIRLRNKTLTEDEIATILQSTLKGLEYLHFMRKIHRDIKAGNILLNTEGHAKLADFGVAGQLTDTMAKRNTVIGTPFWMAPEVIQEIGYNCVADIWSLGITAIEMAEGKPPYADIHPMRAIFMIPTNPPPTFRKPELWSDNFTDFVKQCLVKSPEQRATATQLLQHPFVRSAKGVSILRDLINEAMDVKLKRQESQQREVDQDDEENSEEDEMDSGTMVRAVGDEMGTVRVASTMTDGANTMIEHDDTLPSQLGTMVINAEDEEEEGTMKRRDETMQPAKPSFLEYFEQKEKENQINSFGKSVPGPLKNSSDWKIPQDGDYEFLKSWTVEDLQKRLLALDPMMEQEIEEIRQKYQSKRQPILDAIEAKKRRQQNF
The note with it: Compound concentration 1000.0 nM.

In assay [4] the target is T2, Interleukin-1 receptor-associated kinase 4 (Homo sapiens) (UniProt Q9NWZ3).
T2 sequence (whole entry): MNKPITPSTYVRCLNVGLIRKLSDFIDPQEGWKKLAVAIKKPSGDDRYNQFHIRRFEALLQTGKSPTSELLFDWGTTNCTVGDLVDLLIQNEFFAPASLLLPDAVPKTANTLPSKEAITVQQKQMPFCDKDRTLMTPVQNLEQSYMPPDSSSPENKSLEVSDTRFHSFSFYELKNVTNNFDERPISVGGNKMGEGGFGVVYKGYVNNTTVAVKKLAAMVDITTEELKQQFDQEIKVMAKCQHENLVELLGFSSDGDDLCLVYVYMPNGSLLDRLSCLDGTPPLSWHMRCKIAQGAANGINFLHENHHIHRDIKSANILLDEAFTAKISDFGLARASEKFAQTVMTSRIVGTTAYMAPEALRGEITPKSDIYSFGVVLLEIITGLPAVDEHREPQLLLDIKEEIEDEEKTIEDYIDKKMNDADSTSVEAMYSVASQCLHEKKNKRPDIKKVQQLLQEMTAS
The note with it: Compound concentration 1000.0 nM.

The target in assay [5] is Casein kinase I isoform alpha (Homo sapiens) (UniProt P48729). The note with it: Compound concentration 1000.0 nM.
Casein kinase I isoform alpha (Homo sapiens), sequence (P48729 2-337 limits assumed): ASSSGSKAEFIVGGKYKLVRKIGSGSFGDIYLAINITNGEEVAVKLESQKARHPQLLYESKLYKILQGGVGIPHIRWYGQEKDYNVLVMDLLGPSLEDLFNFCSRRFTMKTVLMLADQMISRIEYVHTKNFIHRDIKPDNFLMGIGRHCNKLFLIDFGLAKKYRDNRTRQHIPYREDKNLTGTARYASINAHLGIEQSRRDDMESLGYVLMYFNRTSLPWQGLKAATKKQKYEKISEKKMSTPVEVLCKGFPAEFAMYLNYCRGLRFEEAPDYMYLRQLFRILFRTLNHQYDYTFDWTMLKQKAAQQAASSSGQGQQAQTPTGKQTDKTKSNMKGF
Assay [6] concerns the target Serine/threonine-protein kinase PknB (Mycobacterium tuberculosis) (UniProt P9WI81). The note with it: Compound concentration 1000.0 nM.
The subject of assay [7] is eIF-2-alpha kinase GCN2 (Homo sapiens), Q9P2K8 [S808G]. The settings on record: Compound concentration 1000.0 nM.
In assay [8] the target is Phosphatidylinositol 4,5-bisphosphate 3-kinase catalytic subunit beta isoform (Homo sapiens) (UniProt P42338). The settings on record: Compound concentration 1000.0 nM.
Phosphatidylinositol 4,5-bisphosphate 3-kinase catalytic subunit beta isoform (Homo sapiens), sequence (P42338 whole entry, looked up, canonical isoform): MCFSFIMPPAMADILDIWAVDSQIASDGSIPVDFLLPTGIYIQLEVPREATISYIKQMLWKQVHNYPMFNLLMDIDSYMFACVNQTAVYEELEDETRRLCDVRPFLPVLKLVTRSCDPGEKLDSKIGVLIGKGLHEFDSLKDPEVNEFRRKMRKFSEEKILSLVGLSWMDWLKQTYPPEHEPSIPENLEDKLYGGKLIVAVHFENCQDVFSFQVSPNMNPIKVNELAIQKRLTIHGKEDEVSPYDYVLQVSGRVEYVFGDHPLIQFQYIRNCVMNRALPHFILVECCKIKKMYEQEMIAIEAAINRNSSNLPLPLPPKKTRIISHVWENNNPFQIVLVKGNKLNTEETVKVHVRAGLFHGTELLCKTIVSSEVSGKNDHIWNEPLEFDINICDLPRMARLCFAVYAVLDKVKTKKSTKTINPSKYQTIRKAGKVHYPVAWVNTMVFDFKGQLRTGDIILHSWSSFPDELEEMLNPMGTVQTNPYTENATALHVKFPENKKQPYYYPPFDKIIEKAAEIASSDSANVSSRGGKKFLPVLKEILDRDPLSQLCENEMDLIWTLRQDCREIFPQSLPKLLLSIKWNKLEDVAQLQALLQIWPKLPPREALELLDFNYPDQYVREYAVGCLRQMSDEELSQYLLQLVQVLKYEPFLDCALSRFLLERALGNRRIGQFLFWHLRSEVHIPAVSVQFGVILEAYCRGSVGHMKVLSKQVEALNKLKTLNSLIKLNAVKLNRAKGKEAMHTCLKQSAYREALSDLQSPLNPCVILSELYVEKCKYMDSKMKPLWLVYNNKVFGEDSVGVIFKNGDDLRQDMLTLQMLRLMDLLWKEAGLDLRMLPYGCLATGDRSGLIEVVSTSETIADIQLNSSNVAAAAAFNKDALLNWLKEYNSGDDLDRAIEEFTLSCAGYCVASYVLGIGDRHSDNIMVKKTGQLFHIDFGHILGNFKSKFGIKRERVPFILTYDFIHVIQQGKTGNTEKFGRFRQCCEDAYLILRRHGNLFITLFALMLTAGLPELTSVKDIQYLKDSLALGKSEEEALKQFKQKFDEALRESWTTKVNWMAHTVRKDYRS
For assay [9], the target named is 5'-AMP-activated protein kinase catalytic subunit alpha-1 (Homo sapiens, UniProt Q13131). Kind of assay: Cellular mechanistic pACC assay using IMR-32 neuroblastoma cells. It counts as cell-based.
Assay [10] has as its target Ephrin type-A receptor 4 (Homo sapiens) (UniProt P54764). The settings on record: Compound concentration 1000.0 nM.
Assay [11] deals with 3-phosphoinositide-dependent protein kinase 1 (Homo sapiens) (UniProt O15530). The settings on record: Compound concentration 1000.0 nM.
The target in assay [12] is Phosphatidylinositol 4-kinase beta (Homo sapiens) (UniProt Q9UBF8). The note with it: Compound concentration 1000.0 nM.
Phosphatidylinositol 4-kinase beta (Homo sapiens), sequence (Q9UBF8 2-816 limits assumed): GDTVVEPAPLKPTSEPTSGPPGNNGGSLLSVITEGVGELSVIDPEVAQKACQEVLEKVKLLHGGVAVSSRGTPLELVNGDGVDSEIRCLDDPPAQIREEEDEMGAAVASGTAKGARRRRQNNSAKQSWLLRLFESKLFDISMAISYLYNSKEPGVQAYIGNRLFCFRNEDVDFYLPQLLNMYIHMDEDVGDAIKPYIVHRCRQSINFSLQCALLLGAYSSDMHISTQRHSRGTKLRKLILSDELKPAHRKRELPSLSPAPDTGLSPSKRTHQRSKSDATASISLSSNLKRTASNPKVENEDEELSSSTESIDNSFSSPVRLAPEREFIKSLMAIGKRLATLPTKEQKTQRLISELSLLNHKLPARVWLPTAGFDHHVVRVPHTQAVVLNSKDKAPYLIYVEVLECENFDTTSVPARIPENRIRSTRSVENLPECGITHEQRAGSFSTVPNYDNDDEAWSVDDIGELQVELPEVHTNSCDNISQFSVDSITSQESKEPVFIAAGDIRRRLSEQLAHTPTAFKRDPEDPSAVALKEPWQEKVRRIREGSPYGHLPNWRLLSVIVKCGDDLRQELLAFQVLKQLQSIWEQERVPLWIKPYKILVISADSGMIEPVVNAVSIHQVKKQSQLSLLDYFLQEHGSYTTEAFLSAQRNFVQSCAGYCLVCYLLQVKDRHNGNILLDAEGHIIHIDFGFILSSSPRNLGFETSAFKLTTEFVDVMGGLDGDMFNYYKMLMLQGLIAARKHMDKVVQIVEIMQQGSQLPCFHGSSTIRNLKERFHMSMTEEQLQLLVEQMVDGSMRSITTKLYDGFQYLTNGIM
In assay [13] the target is Calcium/calmodulin-dependent protein kinase type 1B (Homo sapiens) (UniProt Q6P2M8). The settings on record: Compound concentration 1000.0 nM.
Calcium/calmodulin-dependent protein kinase type 1B (Homo sapiens), sequence (Q6P2M8 whole entry): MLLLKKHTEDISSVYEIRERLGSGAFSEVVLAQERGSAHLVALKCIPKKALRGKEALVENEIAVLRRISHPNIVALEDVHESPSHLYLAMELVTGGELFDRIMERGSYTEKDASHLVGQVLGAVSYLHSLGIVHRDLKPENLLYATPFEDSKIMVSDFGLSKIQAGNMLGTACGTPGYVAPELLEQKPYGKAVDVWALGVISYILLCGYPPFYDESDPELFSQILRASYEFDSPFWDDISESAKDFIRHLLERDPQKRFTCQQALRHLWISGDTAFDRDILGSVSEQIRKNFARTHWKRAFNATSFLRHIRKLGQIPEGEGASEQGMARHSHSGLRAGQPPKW
Assay [14] deals with T3, Testis-specific serine/threonine-protein kinase 3 (Homo sapiens) (UniProt Q96PN8).
T3 sequence (whole entry): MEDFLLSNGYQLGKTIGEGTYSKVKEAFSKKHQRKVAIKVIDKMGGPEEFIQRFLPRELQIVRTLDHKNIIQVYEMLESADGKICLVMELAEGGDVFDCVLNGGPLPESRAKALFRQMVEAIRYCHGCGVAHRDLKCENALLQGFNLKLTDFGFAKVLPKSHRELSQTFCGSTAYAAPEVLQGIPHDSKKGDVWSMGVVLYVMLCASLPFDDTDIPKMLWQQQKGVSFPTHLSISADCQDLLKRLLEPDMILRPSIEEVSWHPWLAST
The note with it: Compound concentration 1000.0 nM.

Assay [15] concerns the target Vascular endothelial growth factor receptor 1 (Homo sapiens) (UniProt P17948). The note with it: Compound concentration 1000.0 nM.

Vascular endothelial growth factor receptor 1 (Homo sapiens), sequence (P17948 whole entry): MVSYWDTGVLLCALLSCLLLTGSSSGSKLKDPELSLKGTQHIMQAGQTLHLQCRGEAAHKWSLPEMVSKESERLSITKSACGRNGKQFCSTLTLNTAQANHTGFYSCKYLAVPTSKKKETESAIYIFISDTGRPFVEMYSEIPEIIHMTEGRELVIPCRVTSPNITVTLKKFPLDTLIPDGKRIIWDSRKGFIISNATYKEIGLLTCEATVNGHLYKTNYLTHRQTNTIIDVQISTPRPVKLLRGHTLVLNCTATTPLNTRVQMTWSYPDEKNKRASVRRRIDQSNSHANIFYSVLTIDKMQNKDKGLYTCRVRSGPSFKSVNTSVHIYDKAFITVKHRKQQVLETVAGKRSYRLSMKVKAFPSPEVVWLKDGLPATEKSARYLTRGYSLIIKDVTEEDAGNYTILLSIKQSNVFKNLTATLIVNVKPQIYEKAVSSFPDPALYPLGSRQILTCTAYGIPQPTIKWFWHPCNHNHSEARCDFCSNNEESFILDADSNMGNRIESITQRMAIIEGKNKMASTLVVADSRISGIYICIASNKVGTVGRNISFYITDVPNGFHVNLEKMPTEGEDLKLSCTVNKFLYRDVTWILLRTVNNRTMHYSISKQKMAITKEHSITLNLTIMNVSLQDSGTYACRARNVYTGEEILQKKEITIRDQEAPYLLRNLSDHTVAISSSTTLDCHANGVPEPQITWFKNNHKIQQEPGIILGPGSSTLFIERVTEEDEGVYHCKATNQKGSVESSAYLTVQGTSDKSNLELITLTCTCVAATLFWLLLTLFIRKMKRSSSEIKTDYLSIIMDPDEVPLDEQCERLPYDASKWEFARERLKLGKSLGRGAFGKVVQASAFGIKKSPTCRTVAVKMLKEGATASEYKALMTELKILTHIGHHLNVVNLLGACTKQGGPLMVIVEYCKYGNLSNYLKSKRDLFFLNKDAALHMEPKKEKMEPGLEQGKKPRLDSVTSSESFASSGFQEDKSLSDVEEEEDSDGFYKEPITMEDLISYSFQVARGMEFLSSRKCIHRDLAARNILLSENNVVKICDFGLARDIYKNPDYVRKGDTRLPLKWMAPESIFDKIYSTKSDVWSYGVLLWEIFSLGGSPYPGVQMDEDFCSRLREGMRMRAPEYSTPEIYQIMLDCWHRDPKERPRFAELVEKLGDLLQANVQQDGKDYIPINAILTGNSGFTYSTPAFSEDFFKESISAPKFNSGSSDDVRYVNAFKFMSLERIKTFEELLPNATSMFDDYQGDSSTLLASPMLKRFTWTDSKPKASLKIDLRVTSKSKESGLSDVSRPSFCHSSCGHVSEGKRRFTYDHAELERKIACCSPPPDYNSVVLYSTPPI
Tyrosine-protein kinase JAK1 (Homo sapiens), sequence (P23458 whole entry): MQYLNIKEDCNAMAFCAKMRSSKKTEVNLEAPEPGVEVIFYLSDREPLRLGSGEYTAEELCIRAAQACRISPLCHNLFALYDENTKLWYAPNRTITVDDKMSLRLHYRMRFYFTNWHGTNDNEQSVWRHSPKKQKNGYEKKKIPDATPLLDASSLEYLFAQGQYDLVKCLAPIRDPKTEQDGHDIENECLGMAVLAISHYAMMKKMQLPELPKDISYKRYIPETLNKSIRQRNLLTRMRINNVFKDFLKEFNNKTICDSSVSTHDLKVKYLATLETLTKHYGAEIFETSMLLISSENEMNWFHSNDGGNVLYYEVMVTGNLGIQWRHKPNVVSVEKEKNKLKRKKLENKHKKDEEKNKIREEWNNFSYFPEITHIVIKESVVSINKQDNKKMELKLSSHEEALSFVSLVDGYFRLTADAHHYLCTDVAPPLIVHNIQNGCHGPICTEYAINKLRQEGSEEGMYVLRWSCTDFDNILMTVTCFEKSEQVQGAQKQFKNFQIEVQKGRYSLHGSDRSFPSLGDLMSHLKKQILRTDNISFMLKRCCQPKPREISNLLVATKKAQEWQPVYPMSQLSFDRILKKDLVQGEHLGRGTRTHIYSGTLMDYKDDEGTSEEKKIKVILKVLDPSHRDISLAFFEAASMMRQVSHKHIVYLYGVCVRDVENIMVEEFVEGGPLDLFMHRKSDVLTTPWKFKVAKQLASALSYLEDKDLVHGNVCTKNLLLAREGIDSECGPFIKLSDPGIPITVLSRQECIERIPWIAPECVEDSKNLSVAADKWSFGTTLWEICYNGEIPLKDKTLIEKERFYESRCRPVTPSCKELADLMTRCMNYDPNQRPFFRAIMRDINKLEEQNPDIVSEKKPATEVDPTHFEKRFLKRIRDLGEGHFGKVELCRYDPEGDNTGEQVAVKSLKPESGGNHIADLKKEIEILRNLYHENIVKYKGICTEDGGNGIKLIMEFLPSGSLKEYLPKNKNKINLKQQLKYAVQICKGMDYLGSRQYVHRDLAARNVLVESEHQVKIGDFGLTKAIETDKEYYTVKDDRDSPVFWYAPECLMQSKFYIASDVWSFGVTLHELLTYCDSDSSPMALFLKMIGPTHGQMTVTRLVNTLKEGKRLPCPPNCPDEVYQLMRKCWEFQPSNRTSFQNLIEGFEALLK

Consider `CC1=C(C#N)C(c2ccc3c(c2)c(NC(=O)c2ccccc2C)nn3C)C(C#N)=C(C)N1` [BAY-974], for which the residual activity in assay [1] is 100%; in assay [2] it was 85%; in assay [3] it was 80%; in [4], 7.5%; in [5] it was 70%; in [6], 97%. Besides, the residual activity was 61% in assay [7]; 86% in [8]; 93% in assay [10]; 77% in assay [11]; 30% in assay [12]; 85% in assay [13]. Also, the residual activity in assay [14] was 80%; in assay [15], 100%. In [9], the IC50 is > 30000 nM (not active).
`CCc1ccccc1C(=O)Nc1n[nH]c2c(C)c(F)c(C3C(C#N)=C(C)N(C)C(C)=C3C#N)cc12` [BAY-3827]: the residual activity was 97% in [1]; 55% in assay [2]; 98% in assay [3]; 100% in assay [4]; 96% in assay [5]; 85% in assay [6]. Moreover, the residual activity in assay [7] is 43%; in [8], 100%; in [10], 100%; in assay [11] it was 86%; in assay [12], 100%; in assay [13] it was 100%. Further, the residual activity in [14] is 100%; in assay [15] it was 72%. Further, the IC50 in assay [9] was 150 nM.

Values taken from ChEMBL document CHEMBL4507319 (2021).
